The subject of one experiment is ob/ob and db/db mice. The settings on record: following 8 weeks of administration; cited from earlier work.
Experiment [1] has as its target recombinant human AMPK complex 7 (containing α2β1γ1) (Homo sapiens, UniProt P54646+Q9Y478). The experiment in a line: in vitro AMPK activation assay (AMPKSAMSF). In kind it is biochemical. As to conditions: for EC50: inflection point reflecting 50% of the maximum activation, human AMPK Complex 7; for Emax: recombinant human AMPK complex 7 (α2β1γ1), 10-point titration expressed as % maximum AMP activation. As to the method: The recombinant human AMPK complex 1 (containing α1β1γ1) or AMPK complex 7 (containing α2β1γ1) was obtained from baculovirus expression system. Recombinant viruses were generated by cotransfection of AMPK/pBacPak9 clones with Baculogold baculovirus DNA (Pharmingen) in spodoptera frugiperda 21 cells according to the manufacturer's instructions. Each round of virus amplification was performed for 5 days in Grace's medium containing 10% serum. Virus that had been subjected to three rounds of amplification was used for all protein production procedures. To express the AMPK complex, sf21 cells were adapted to serum free medium (SF900 II, Invitrogen) by sequential dilution from serum containing stocks into SF900II medium and maintained in shaker flasks at 90 rpm at 27° C. The recombinant AMPK enzyme complex was produced by triple infection, one recombinant virus for each of the subunits, in sf21 cells under serum free conditions. Cells were infected in log phase, 1×10^6 cells/ml, at a multiplicity of infection of ˜5. Cells were harvested by centrifugation at 10,000×g for 15 minutes after 72 hours of infection with viruses. The insect cell pellet from 2 liters of culture was resuspended in 50 ml lysis buffer (20 mM Tris-HCl, 50 mM NaCl, 50 mM NaF, 30 mM Na PPi, 0.25 M sucrose, 10 mM ZnCl2, 2 mM DTT, 0.4 mg/ml digitonin) and subjected to two cycles of freeze-thaw lysis in a dry-ice ethanol bath. Insoluble material was removed by centrifugation at 10,000×g and the supernatant was fractionated with use of polyethylene glycol (PEG). The protein fraction precipitating between 2.5 and 6% PEG was used for further purification using a Blue-Sepharose step (Zhou et al, J. Clin. Invest. 108, 1167-1174, 2001).
The in vitro AMPK activation assay is performed in a volume of 30 μl in a 384-well plate. Enzyme reactions were assembled in the microtiter plate by adding 15 μl of 2× enzyme in assay buffer (20 mM HEPES, pH 7.3, 5 mM MgCl2, 3 mM DTT, 0.01% Brij 35 and CamK Kinase, to activate AMPK) to wells which contained either DMSO or compound. The reaction was initiated with the addition of 15 μl 2× substrate mixture containing 200 μM ATP, and 3.0 μM fluorescently labeled SAMS (5-FAM-HMRSAMSGLHLVKRR-COOH) in assay buffer. After 45-minute incubation at 25° C., the reaction was stopped by the addition of 70 μl stop buffer (100 mM HEPES, pH 7.3, 40 mM EDTA, 0.015% Brij 35). Phosphorylated 5-FAM SAMS product is assessed using a Caliper EZ Reader LabChip microfluidics reader. Product conversion is determined by calculating the peak heights of the substrate and product and reporting the product/(product+substrate) peak ratio. The 10-point titration data were expressed as % maximum AMP activation. The results were plotted using 4 parameter fit and the inflection point reflecting 50% of the maximum activation was reported as the EC50.

recombinant human AMPK complex 7 (containing α2β1γ1), sequence (P54646 whole entry): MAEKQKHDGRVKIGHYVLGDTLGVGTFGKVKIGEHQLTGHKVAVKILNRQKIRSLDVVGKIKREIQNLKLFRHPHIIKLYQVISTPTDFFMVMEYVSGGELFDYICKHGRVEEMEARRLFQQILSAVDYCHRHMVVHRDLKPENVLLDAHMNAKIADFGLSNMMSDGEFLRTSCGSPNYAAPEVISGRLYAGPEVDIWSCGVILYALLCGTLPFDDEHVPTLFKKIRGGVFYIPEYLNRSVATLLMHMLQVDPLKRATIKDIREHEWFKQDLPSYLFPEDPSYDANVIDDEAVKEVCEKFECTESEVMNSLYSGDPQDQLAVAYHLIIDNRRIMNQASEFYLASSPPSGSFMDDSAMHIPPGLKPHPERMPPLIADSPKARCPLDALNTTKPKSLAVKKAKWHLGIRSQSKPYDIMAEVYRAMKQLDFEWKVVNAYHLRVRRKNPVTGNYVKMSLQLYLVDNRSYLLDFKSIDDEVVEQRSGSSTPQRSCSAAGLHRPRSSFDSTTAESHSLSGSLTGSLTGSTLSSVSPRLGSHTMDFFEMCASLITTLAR
recombinant human AMPK complex 7 (containing α2β1γ1), sequence (Q9Y478 whole entry): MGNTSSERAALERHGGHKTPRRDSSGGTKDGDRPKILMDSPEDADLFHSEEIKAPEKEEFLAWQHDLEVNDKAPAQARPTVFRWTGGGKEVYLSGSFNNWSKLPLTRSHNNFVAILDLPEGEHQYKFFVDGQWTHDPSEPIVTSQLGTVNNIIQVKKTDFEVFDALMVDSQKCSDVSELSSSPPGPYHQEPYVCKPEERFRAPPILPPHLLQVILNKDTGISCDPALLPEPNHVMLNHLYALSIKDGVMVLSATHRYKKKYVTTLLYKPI
recombinant human AMPK complex 7 (containing α2β1γ1), sequence (P54619 whole entry partner): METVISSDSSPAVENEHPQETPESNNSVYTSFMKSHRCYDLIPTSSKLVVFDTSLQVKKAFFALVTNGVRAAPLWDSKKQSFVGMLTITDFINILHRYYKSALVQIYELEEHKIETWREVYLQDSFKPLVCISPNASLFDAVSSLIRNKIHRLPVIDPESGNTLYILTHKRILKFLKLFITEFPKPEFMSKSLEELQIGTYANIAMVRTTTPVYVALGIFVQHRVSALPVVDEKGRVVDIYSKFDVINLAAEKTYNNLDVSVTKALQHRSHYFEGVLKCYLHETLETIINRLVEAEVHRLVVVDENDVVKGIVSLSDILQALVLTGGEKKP

On to `NC(=O)c1ncn([C@@H]2O[C@H](CO)[C@@H](O)[C@H]2O)c1N` [AICAR], for which the blood glucose reduction with ob/ob and db/db mice is 35%.

For `OC[C@H]1OC[C@@H](Oc2nc3nc(-c4ccc(-c5ccc(-n6cccn6)nc5)cc4)c(Cl)cc3[nH]2)[C@@H]1O` [Example 1, (2R,3R,4R)-4-[[6-chloro-5-[4-(6-pyrazol-1-yl-3-pyridyl)phenyl]-1H-imidazo[4,5-b]pyridin-2-yl]oxy]-2-(hydroxymethyl)tetrahydrofuran-3-ol], in experiment [1], the EC50 was found to be 16 nM and the maximal response (Emax) turned out to be 188%.

`OC[C@H]1OC[C@@H](Oc2nc3nc(-c4ccc(-c5ccc(-n6cccn6)cc5)cc4)c(Cl)cc3[nH]2)[C@@H]1O` [Example 2]: in experiment [1], the 50% effective concentration (EC50) was determined as 4 nM and the Emax worked out at 315%.

Regarding `OC[C@H]1OC[C@@H](Oc2nc3nc(-c4ccc(-c5ccccc5)cc4)c(Cl)cc3[nH]2)[C@@H]1O` [Example 3], in experiment [1], the EC50 worked out at 13 nM and the maximal effect (Emax) was determined as 338%.

For the compound `OC[C@H]1OC[C@@H](Oc2nc3nc(-c4ccc(-c5ccc(-n6nccn6)cc5)cc4)c(Cl)cc3[nH]2)[C@@H]1O` [Example 4, (2R,3R,4R)-4-[[6-chloro-5-[4-[4-(triazol-2-yl)phenyl]phenyl]-1H-imidazo[4,5-b]pyridin-2-yl]oxy]2-(hydroxymethyl)tetrahydrofuran-3-ol], in experiment [1], the concentration for a half-maximal effect (EC50) is 20 nM and the maximum response (Emax) came to 206%.

Take `OC[C@H]1OC[C@@H](Oc2nc3nc(-c4ccc(-c5ccc(-n6cncn6)cc5)cc4)c(Cl)cc3[nH]2)[C@@H]1O` [Example 5, (2R,3R,4R)-4-[[6-chloro-5-[4-[4-(1,2,4-triazol-1-yl)phenyl]phenyl]-1H-imidazo[4,5-b]pyridin-2-yl]oxy]-2-(hydroxymethyl)tetrahydrofuran-3-ol]: in experiment [1], the EC50 is 2 nM and the Emax turned out to be 261%.

As for `CC(C)(O)Cc1cnn(-c2ccc(-c3ccc(-c4nc5nc(O[C@@H]6CO[C@H](CO)[C@H]6O)[nH]c5cc4Cl)cc3)cc2)c1` [Example 6], in experiment [1], the EC50 was determined as 5 nM and the Emax was 268%.

Turning to `OC[C@H]1OC[C@@H](Oc2nc3nc(-c4ccc(-c5ccc(-n6cnnn6)cc5)cc4)c(Cl)cc3[nH]2)[C@@H]1O` [Example 7, (2R,3R,4R)-4-[[6-chloro-5-[4-[4-(tetrazol-1-yl)phenyl]phenyl]-1H-imidazo[4,5-b]pyridin-2-yl]oxy]-2-(hydroxymethyl)tetrahydrofuran-3-ol], in experiment [1], the EC50 stood at 3 nM and the Emax came out at 282%.

As for `CC(C)(O)Cn1cc2c(n1)CN(c1ccc(-c3nc4nc(O[C@@H]5CO[C@H](CO)[C@H]5O)[nH]c4cc3Cl)cc1)C2` [Example 8, (2R,3R,4R)-4-[[6-chloro-5-[4-[2-(2-hydroxy-2-methyl-propy)-4,6-dihydropyrrolo[3,4-c]pyrazol-5-yl]phenyl]-1H-imidazo[4,5-b]pyridin-2-yl]oxy]-2-(hydroxymethyl)-tetrahydrofuran-3-ol; 2,2,2-trifluoroacetic acid], in experiment [1], the 50% effective concentration (EC50) turned out to be 9 nM and the Emax was 332%.

Turning to `CC(C)(F)Cn1cc2c(n1)CN(c1ccc(-c3nc4nc(O[C@@H]5CO[C@H](CO)[C@H]5O)[nH]c4cc3Cl)cc1)C2` [Example 9, (2R,3R,4R)-4-[[6-chloro-5-[4-[2-(2-fluoro-2-methyl-propyl)-4,6-dihydropyrrolo[3,4-c]pyrazol-5-yl]phenyl]-1H-imidazo[4,5-b]pyridin-2-yl]oxy]-2-(hydroxymethyl)tetrahydrofuran-3-ol], in experiment [1], the EC50 turned out to be 11 nM and the maximum response (Emax) amounted to 294%.

`OC[C@H]1OC[C@@H](Oc2nc3nc(-c4ccc(Br)cc4)c(Cl)cc3[nH]2)[C@@H]1O` [Example 10, (2R,3R,4R)-4-[[5-(4-bromophenyl)-6-chloro-1H-imidazo[4,5-b]pyridin-2-yl]oxy]-2-(hydroxymethyl)tetrahydrofuran-3-ol]: in experiment [1], the EC50 worked out at 3650 nM and the maximal effect (Emax) amounted to 209%.

For `O=C(O)[C@H]1OC[C@@H](Oc2nc3nc(-c4ccc(-c5ccccc5)cc4)c(Cl)cc3[nH]2)[C@@H]1O` [Example 12, (2S,3S,4R)-4-[[6-chloro-5-(4-phenylphenyl)-1H-imidazo[4,5-b]pyridin-2-yl]oxy]-3-hydroxy-tetrahydrofuran-2-carboxylic acid], in experiment [1], the EC50 worked out at 332 nM and the maximal response (Emax) is 313%.

On to `C[C@]1(O)[C@@H](CO)OC[C@H]1Oc1nc2nc(-c3ccc(-c4ccccc4)cc3)c(Cl)cc2[nH]1` [Example 14, (2R,3S,4R)-4-[[6-chloro-5-(4-phenylphenyl)-1H-imidazo[4,5-b]pyridin-2-yl]oxy]-2-(hydroxymethyl)-3-methyl-tetrahydrofuran-3-ol], for which, in experiment [1], the EC50 is 289 nM and the Emax stood at 203%.

Turning to `OC[C@H]1OC[C@@H](Oc2nc3nc(-c4ccc(-c5ccccc5F)cc4)c(Cl)cc3[nH]2)[C@@H]1O` [Example 18], in experiment [1], the concentration for a half-maximal effect (EC50) came out at 32 nM and the Emax turned out to be 294%.

Take `OC[C@H]1OC[C@@H](Oc2nc3nc(-c4ccc(-c5cccc(F)c5)cc4)c(Cl)cc3[nH]2)[C@@H]1O` [Example 19]: in experiment [1], the EC50 was determined as 126 nM and the Emax is 231%.

Consider `N#CCCn1nnnc1-c1ccc(-c2ccc(-c3nc4nc(O[C@@H]5CO[C@H](CO)[C@H]5O)[nH]c4cc3Cl)cc2)cc1` [Example 20], for which, in experiment [1], the EC50 was 8 nM and the Emax is 242%.

As to `OC[C@H]1OC[C@@H](Oc2nc3nc(-c4ccc(-c5ccc(F)cc5F)cc4)c(Cl)cc3[nH]2)[C@@H]1O` [Example 21], in experiment [1], the half-maximal effective concentration (EC50) amounted to 85 nM and the Emax amounted to 307%.

Consider `OC[C@H]1OC[C@@H](Oc2nc3nc(-c4ccc(-c5ccc(N6CCOCC6)cc5)cc4)c(Cl)cc3[nH]2)[C@@H]1O` [Example 22], for which, in experiment [1], the EC50 came out at 5 nM and the maximal response (Emax) is 252%.

Turning to `OC[C@H]1OC[C@@H](Oc2nc3nc(-c4ccc(-c5ccc(F)cc5)cc4)c(Cl)cc3[nH]2)[C@@H]1O` [Example 23], in experiment [1], the concentration giving a half-maximal response (EC50) was determined as 38 nM and the Emax was 231%.

Usually EC50 stands for the concentration giving half of the maximal effect. One may read the Emax as the maximal effect, on the per cent scale that the assay sets.

The record behind these values is patent US9868733B2, “Azabenzimidazole tetrahydrofuran derivatives” (Merck Sharp & Dohme Corp., priority 2012, dated 2018).
